Values of other authors as cited in US20150320814A1, “NUTRACEUTICAL FORMULATION FOR TREATMENT OF ANXIETY AND DEPRESSION” (priority 2014, published 2015).

Experiments:
[1] = system: alpha brain waves; conditions: sixty minutes after oral administration, volunteers
[2] = in vivo
[3] = system: GABA receptors; conditions: isolated from skullcap
[4] = system: patients with major depression; conditions: 125-300 mg of magnesium with each meal and at bedtime
[5] = system: patients with clinical depression; conditions: patients with clinical depression treated with nicotinic acid

NCCCC(=O)O [GABA, gamma aminobutyric acid]
alpha brain waves by electroencephalogram [1]: increases in alpha brain waves

CCNC(=O)CC[C@H](N)C(=O)O [Theanine, L-theanine]
blood brain barrier passage [2]: passes through the blood brain barrier

O=c1cc(-c2ccccc2)oc2cc(O)c(O)c(O)c12 [baicalein]
activity at GABA receptors [3]: agonists of GABA receptors

O=C(O)[C@H]1O[C@@H](Oc2cc3oc(-c4ccccc4)cc(=O)c3c(O)c2O)[C@H](O)[C@@H](O)[C@@H]1O [baicalin]
activity at GABA receptors [3]: agonists of GABA receptors

[Mg+2] [magnesium]
recovery from major depression [4]: Rapid recovery

O=C(O)c1cccnc1 [nicotinic acid]
patients showing significant improvements in mood [5]: 14 of 15
